Patent EP4603105A1, “PHARMACEUTICAL COMPOSITION CONTAINING CYCLIC COMPOUND HAVING SELECTIVE KRAS INHIBITORY EFFECT AGAINST HRAS AND NRAS” (CHUGAI SEIYAKU KABUSHIKI KAISHA, priority 2022, dated 2024)
pIC50: −log10 of the molar value. *1 amine or outer side, *2 acyl side, *3 side chain or, on linkers, in order; H or OH if unused. Where a SMILES comes first, the peptide text is derived from it. Bridges are numbered along the chain shown (N, C = ends). [ ]: non-standard residue; d: D form. The star is where a group is joined. hPhe(3-Cl-4-CF3) = N[C@@H](CCc1ccc(C(F)(F)F)c(Cl)c1)C(=O)O; NPrPhe(4-CF3) = CCCN[C@@H](Cc1ccc(C(F)(F)F)cc1)C(=O)O; NEtPhe(4-Me) = CCN[C@@H](Cc1ccc(C)cc1)C(=O)O; X15 = CCCN([C@@H](Cc1ccccc1)C(=O)[*:2])[*:1]; NMeGly(cPent) = CN[C@H](C(=O)O)C1CCCC1; Pro(4,4-F2) = O=C(O)[C@@H]1CC(F)(F)CN1; Hyp = O=C(O)[C@@H]1C[C@@H](O)CN1; NMeD = CN[C@@H](CC(=O)O)C(=O)O; NMeL = CN[C@@H](CC(C)C)C(=O)O; Morpholide = C1CN(*)CCO1; NMeA = CN[C@@H](C)C(=O)O; Ac5c = NC1(C(=O)O)CCCC1; Aze = O=C(O)[C@@H]1CCN1; Ac4c = NC1(C(=O)O)CCC1; Sar = CNCC(=O)O

Columns and labels:
[1] = target: GDP-bound NRAS wild-type protein (Homo sapiens, UniProt P01111); experiment: Binding to NRAS by surface plasmon resonance (SPR), KD and KD ratio to KRAS
GDP-bound NRAS wild-type protein, sequence (P01111 whole entry): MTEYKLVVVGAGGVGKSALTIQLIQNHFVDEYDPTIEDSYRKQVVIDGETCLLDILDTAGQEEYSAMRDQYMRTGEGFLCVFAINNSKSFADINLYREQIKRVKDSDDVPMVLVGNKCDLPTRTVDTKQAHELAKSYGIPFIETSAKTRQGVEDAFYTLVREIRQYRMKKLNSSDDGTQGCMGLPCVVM
Method in brief: (§1)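 Single-cycle kinetics on GDP-loaded biotin-Avi RAS captured to ~100–300 RU; 75 s ascending injections, 100 µL/min, 30°C. HBS pH 7.4 + 10 mM MgCl2/10 µM GDP/4% DMSO. 1:1 fit, KD.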

HRAS wild-type protein = HRAS wild-type protein (Homo sapiens, UniProt P01112); experiment: Binding to HRAS by surface plasmon resonance (SPR), KD and KD ratio to KRAS
HRAS wild-type protein, sequence (P01112 whole entry): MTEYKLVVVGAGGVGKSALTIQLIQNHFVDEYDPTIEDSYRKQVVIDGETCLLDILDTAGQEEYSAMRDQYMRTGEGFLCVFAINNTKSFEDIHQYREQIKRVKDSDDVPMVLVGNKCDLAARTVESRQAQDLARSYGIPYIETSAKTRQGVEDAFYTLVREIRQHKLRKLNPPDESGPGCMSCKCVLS
Method in brief: as §1

[2] = test system: human lung cancer strain NCI-H441; format: cell-based
Method in brief: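 Proliferation was scored by […] measured after the reagent was added to cultures kept at 37°C in 5% carbon dioxide.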

[3] = ratio of the KD value with respect to GDP-bound NRAS wild-type protein to the KD value with respect to KRAS
[4] = ratio of the KD value with respect to HRAS wild-type protein to the KD value with respect to KRAS
[5] = ratio of KD for GDP-bound NRAS wild-type protein to KD for KRAS
[6] = ratio of KD for HRAS wild-type protein to KD for KRAS
[7] = ratio of KD value for GDP-bound NRAS wild-type protein to KD value for KRAS (SPR)
[8] = ratio of KD value for HRAS wild-type protein to KD value for KRAS (SPR)

SMILES	pIC50 [2]	NRAS /KRAS [1, 3]	HRAS /KRAS (HRAS wild-type protein; [4])	NRAS /KRAS [1, 5]	HRAS /KRAS (HRAS wild-type protein; [6])	NRAS /KRAS [1, 7]	HRAS /KRAS (HRAS wild-type protein; [8])
CC[C@H](C)[C@@H]1NC(=O)[C@H](CC(C)C)N(C)C(=O)C[C@@H](C(=O)N2CCOCC2)N(C)C(=O)[C@H](C2CCCC2)N(C)C(=O)C2(CCCC2)NC(=O)[C@@H]2C[C@H](OC)CN2C(=O)[C@H](CCc2cc(F)c(C(F)(F)F)c(F)c2)NC(=O)CN(C)C(=O)[C@H](Cc2ccc(C(F)(F)F)cc2)N2CCCCC[C@@H](C2=O)N(C)C(=O)CN(C)C1=O [PP0495]	6.08	A (a compound having 10 or more and less than 20 is denoted as A)	B (a compound having 3 or more and less than 10 is denoted as B)				
CCO[C@@H]1C[C@H]2C(=O)NC3(CCC3)C(=O)N(C)[C@@H](C3CCCC3)C(=O)N(C)[C@H](C(=O)N(C)C)CC(=O)N(C)[C@@H](CC)C(=O)N[C@@H]([C@@H](C)CC)C(=O)N(C)CC(=O)N(C)[C@H]3CCCCN(C3=O)[C@@H](Cc3ccc(C(F)(F)F)cc3)C(=O)N(C)CC(=O)N[C@@H](CCc3ccc(C(F)(F)F)cc3F)C(=O)N2C1 [PP0885]	7.94			C (A compound having a KD ratio of 0.1 or more and less than 3 is denoted as C)	B (a compound having 3 or more and less than 10 is denoted as B)		
CCCN1C(=O)[C@@H]2CCN2C(=O)CN(C)C(=O)[C@H]([C@@H](C)CC)NC(=O)[C@H](CC(C)C)N(C)C(=O)C[C@@H](C(=O)N2CCOCC2)NC(=O)[C@H](C2CCCC2)N(C)C(=O)C2(CCC2)NC(=O)[C@@H]2CC(F)(F)CN2C(=O)[C@H](CCc2ccc(C(F)(F)F)c(Cl)c2)NC(=O)CN(C)C(=O)[C@@H]1Cc1ccc(C(F)(F)F)cc1 [PP0352] ([NMeL]I[Sar][Aze][NPrPhe(4-CF3)][Sar][hPhe(3-Cl-4-CF3)][Pro(4,4-F2)][Ac4c][NMeGly(cPent)]D-Morpholide; lactam N-11)	7.14			C (A compound having a KD ratio of 0.1 or more and less than 3 is denoted as C)	B (a compound having 3 or more and less than 10 is denoted as B)		
CCO[C@@H]1C[C@H]2C(=O)NC3(CCC3)C(=O)N(C)[C@@H](C3CCCC3)C(=O)N(C)[C@H](C(=O)N3CCOCC3)CC(=O)N(C)[C@@H](COC)C(=O)N[C@@H]([C@@H](C)CC)C(=O)N(C)CC(=O)N(C)[C@H]3CCCCCN(C3=O)[C@@H](Cc3ccc(C(F)(F)F)cc3)C(=O)N(C)CC(=O)N[C@@H](CCc3cc(F)c(C(F)(F)F)c(F)c3)C(=O)N2C1 [PP0689]	7.46	B (a compound having 3 or more and less than 10 is denoted as B)	B (a compound having 3 or more and less than 10 is denoted as B)				
CC[C@H](C)[C@@H]1NC(=O)[C@H](CC(C)C)N(C)C(=O)C[C@@H](C(=O)N2CCOCC2)N(C)C(=O)[C@H](C2CCCC2)N(C)C(=O)C2(CCC2)NC(=O)[C@@H]2[C@@H](OCC3CCCC3)CCN2C(=O)[C@H](CCc2cc(F)c(C(F)(F)F)c(F)c2)NC(=O)CN(C)C(=O)[C@H](Cc2ccc(C(F)(F)F)cc2)N2CCCC[C@@H](C2=O)N(C)C(=O)CN(C)C1=O [PP1073]	7.08			B (a compound having 3 or more and less than 10 is denoted as B)	B (a compound having 3 or more and less than 10 is denoted as B)		
CCO[C@@H]1C[C@H]2C(=O)NC3(CC(C)(C)C3)C(=O)N(C)[C@@H](C(CC)CC)C(=O)N(C)[C@H](C(=O)N(C)C)CC(=O)N(C)[C@@H](CC3CCC3)C(=O)N[C@@H]([C@@H](C)CC)C(=O)N(C)CC(=O)N(C)[C@H]3C/C=C\CCN(C3=O)[C@@H](Cc3ccc(C(F)(F)F)cc3)C(=O)N(C)CC(=O)N[C@@H](CCc3ccc(C(F)(F)F)c(Cl)c3)C(=O)N2C1 [PP2138]	7.80	A (a compound having 10 or more and less than 20 is denoted as A)	A (a compound having 10 or more and less than 20 is denoted as A)				
CCCCO[C@H]1CCN2C(=O)[C@H](CCc3cc(F)c(C(F)(F)F)c(F)c3)NC(=O)CN(C)C(=O)[C@H](Cc3ccc(C(F)(F)F)cc3)N3CCCC[C@@H](C3=O)N(C)C(=O)CN(C)C(=O)[C@H]([C@@H](C)CC)NC(=O)[C@H](CC(C)C)N(C)C(=O)C[C@@H](C(=O)N3CCOCC3)N(C)C(=O)[C@H](C3CCCC3)N(C)C(=O)C3(CCC3)NC(=O)[C@H]12 [PP1071]	7.61			B (a compound having 3 or more and less than 10 is denoted as B)	B (a compound having 3 or more and less than 10 is denoted as B)		
CCC[C@H]1C(=O)N[C@@H]([C@@H](C)CC)C(=O)N(C)CC(=O)N(C)[C@H]2C/C=C\CCN(C2=O)[C@@H](Cc2ccc(C)cc2)C(=O)N(C)CC(=O)N[C@@H](CCc2ccc(C(F)(F)F)c(OC)c2)C(=O)N2C[C@H](OCC)C[C@H]2C(=O)NC2(CC(C)(C)C2)C(=O)N(C)[C@@H](C(CC)CC)C(=O)N(C)[C@H](C(=O)N(C)C)CC(=O)N1C [PP2068]	7.95	A (a compound having 10 or more and less than 20 is denoted as A)	B (a compound having 3 or more and less than 10 is denoted as B)				
CCO[C@@H]1C[C@H]2C(=O)NC3(CCC3)C(=O)N(C)[C@@H](C3CCCC3)C(=O)N(C)C(C(C)C)CC(=O)N(C)[C@@H](CC)C(=O)N[C@@H]([C@@H](C)CC)C(=O)N(C)CC(=O)N(C)[C@H]3C/C=C\CCN(C3=O)[C@@H](Cc3ccc(C(F)(F)F)cc3)C(=O)N(C)CC(=O)N[C@@H](CCc3cc(F)c(C(F)(F)F)c(F)c3)C(=O)N2C1 (stereo partly drawn) [PP1590]	8.10					A (a compound having 10 or more and less than 20 is denoted as A)	B (a compound having 3 or more and less than 10 is denoted as B)
CC[C@H](C)[C@@H]1NC(=O)[C@H](CC(C)C)N(C)C(=O)C[C@@H](C(=O)N(C)CC)N(C)C(=O)[C@H](C2CCCC2)N(C)C(=O)C2(CCC2)NC(=O)[C@@H]2C[C@H](C)CN2C(=O)[C@H](CCc2ccc(C(F)(F)F)c(OC)c2)NC(=O)CN(C)C(=O)[C@H](Cc2ccc(C)cc2)N2CC/C=C\C[C@@H](C2=O)N(C)C(=O)CN(C)C1=O [PP1904]	7.74	A (a compound having 10 or more and less than 20 is denoted as A)	B (a compound having 3 or more and less than 10 is denoted as B)				

Now those with a higher pIC50 [2], led by results:

pIC50 [2]	SMILES	NRAS /KRAS [1, 3]	HRAS /KRAS (HRAS wild-type protein; [4])	NRAS /KRAS [1, 5]	HRAS /KRAS (HRAS wild-type protein; [6])	NRAS /KRAS [1, 7]	HRAS /KRAS (HRAS wild-type protein; [8])
8.14	CCO[C@@H]1C[C@H]2C(=O)NC3(CCCC3)C(=O)N(C)[C@@H](C3CCCC3)C(=O)N(C)[C@H](C(=O)N3CCOCC3)CC(=O)N(C)[C@@H](CC(C)C)C(=O)N[C@@H]([C@@H](C)CC)C(=O)N(C)CC(=O)N(C)CC(=O)N(CC)[C@@H](Cc3ccc(C)cc3)C(=O)N(C)CC(=O)N[C@@H](CCc3ccc(C(F)(F)F)c(Cl)c3)C(=O)N2C1 [PP0042] ([NMeL]I[Sar][Sar][NEtPhe(4-Me)][Sar][hPhe(3-Cl-4-CF3)][Hyp](Et)[Ac5c][NMeGly(cPent)][NMeD]-Morpholide; lactam N-11)			C (A compound having a KD ratio of 0.1 or more and less than 3 is denoted as C)	C (A compound having a KD ratio of 0.1 or more and less than 3 is denoted as C)		
8.46	C#CC[C@H]1C(=O)N[C@@H]([C@@H](C)CC)C(=O)N(C)CC(=O)N(C)[C@H]2C/C=C\CCN(C2=O)[C@@H](Cc2ccc(C(F)(F)F)cc2)C(=O)N(C)CC(=O)N[C@@H](CCc2cc(F)c(C(F)(F)F)c(F)c2)C(=O)N2C[C@H](OCC)C[C@H]2C(=O)NC2(CC(C)(C)C2)C(=O)N(C)[C@@H](C2CCCC2)C(=O)N(C)[C@H](C(=O)N(C)CC)CC(=O)N1C [PP2073]	A (a compound having 10 or more and less than 20 is denoted as A)	A (a compound having 10 or more and less than 20 is denoted as A)				
8.52	CCCN1C(=O)[C@@H]2CCN2C(=O)[C@H](C)N(C)C(=O)[C@H]([C@@H](C)CC)NC(=O)[C@H](CC(C)C)N(C)C(=O)C[C@@H](C(=O)N2CCOCC2)N(C)C(=O)[C@H](C2CCCC2)N(C)C(=O)C2(CCCC2)NC(=O)[C@@H]2CCCN2C(=O)[C@H](CCc2ccc(C(F)(F)F)c(Cl)c2)NC(=O)CN(C)C(=O)[C@@H]1Cc1ccccc1 [PP0216] ([NMeL]I[NMeA][Aze][X15][Sar][hPhe(3-Cl-4-CF3)]P[Ac5c][NMeGly(cPent)][NMeD]-Morpholide; lactam N-11)			C (A compound having a KD ratio of 0.1 or more and less than 3 is denoted as C)	B (a compound having 3 or more and less than 10 is denoted as B)		
8.55	CC[C@H](C)[C@@H]1NC(=O)[C@H](CC(C)C)N(C)C(=O)C[C@@H](C(=O)N2CCOCC2)N(C)C(=O)[C@H](C2CCCC2)N(C)C(=O)C2(CCCC2)NC(=O)[C@@H]2CCCN2C(=O)[C@H](CCc2cc(F)c(C(F)(F)F)c(F)c2)NC(=O)CN(C)C(=O)[C@H](Cc2ccc(C(F)(F)F)cc2)N2CCCC[C@@H](C2=O)N(C)C(=O)CN(C)C1=O [PP0552]	B (a compound having 3 or more and less than 10 is denoted as B)	B (a compound having 3 or more and less than 10 is denoted as B)				
8.80	CCO[C@@H]1C[C@H]2C(=O)NC3(CC(C)(C)C3)C(=O)N(C)[C@@H](C3CCCC3)C(=O)N(C)[C@H](C(=O)N(C)CC)CC(=O)N(C)[C@@H](CC(F)F)C(=O)N[C@@H]([C@@H](C)CC)C(=O)N(C)CC(=O)N(C)[C@H]3C/C=C\CCN(C3=O)[C@@H](Cc3ccc(C(F)(F)F)cc3)C(=O)N(C)CC(=O)N[C@@H](CCc3cc(F)c(C(F)(F)F)c(F)c3)C(=O)N2C1 [PP1643]					A (a compound having 10 or more and less than 20 is denoted as A)	A (a compound having 10 or more and less than 20 is denoted as A)
